Source: PubChem BioAssay AID1963830 (Molecular Pharmacology Branch, DTP, NCI, 2024)

Test system: 922993-354-T-J3-PDC complex spheroid viability
Assay: Anticancer human tumor 922993-354-T-J3-PDC patient-derived endometrial carcinoma cell line growth inhibition [POLQ]
Details: for IC50: curve of first compound; for viability, T/C: stronger effect = lower value
In short: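 Complex spheroid viability model combining PDC tumour cells with endothelial (HUVEC) and MSC stromal cells. Novobiocin, ART-558 or RP6685 were tested singly and in combination with standard and investigational anticancer drugs. Each was titrated in half-log steps from near clinical Cmax, or from 10 microM where Cmax was unknown.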

[1] = second compound 0.0316 µM, first compound 0.0316 µM
[2] = second compound 0.0316 µM, first compound 0.1 µM
[3] = second compound 0.0316 µM, first compound 0.316 µM
[4] = second compound 0.0316 µM, first compound 1 µM
[5] = second compound 0.0316 µM, first compound 3.16 µM
[6] = second compound 0.0316 µM, first compound 10 µM
[7] = second compound 0.1 µM, first compound 0.0316 µM
[8] = second compound 0.1 µM, first compound 0.1 µM
[9] = second compound 0.1 µM, first compound 0.316 µM
[10] = second compound 0.1 µM, first compound 1 µM
[11] = second compound 0.1 µM, first compound 3.16 µM
[12] = second compound 0.1 µM, first compound 10 µM
[13] = second compound 0.316 µM, first compound 0.0316 µM
[14] = second compound 0.316 µM, first compound 0.1 µM
[15] = second compound 0.316 µM, first compound 0.316 µM
[16] = second compound 0.316 µM, first compound 1 µM
[17] = second compound 0.316 µM, first compound 3.16 µM
[18] = second compound 0.316 µM, first compound 10 µM
[19] = second compound 1 µM, first compound 0.0316 µM
[20] = second compound 1 µM, first compound 0.1 µM
[21] = second compound 1 µM, first compound 0.316 µM
[22] = second compound 1 µM, first compound 1 µM
[23] = second compound 1 µM, first compound 3.16 µM
[24] = second compound 1 µM, first compound 10 µM
[25] = second compound 3.16 µM, first compound 0.0316 µM
[26] = second compound 3.16 µM, first compound 0.1 µM
[27] = second compound 3.16 µM, first compound 0.316 µM
[28] = second compound 3.16 µM, first compound 1 µM
[29] = second compound 3.16 µM, first compound 3.16 µM
[30] = second compound 3.16 µM, first compound 10 µM
[31] = second compound 10 µM, first compound 0.0316 µM
[32] = second compound 10 µM, first compound 0.1 µM
[33] = second compound 10 µM, first compound 0.316 µM
[34] = second compound 10 µM, first compound 1 µM
[35] = second compound 10 µM, first compound 3.16 µM
[36] = second compound 10 µM, first compound 10 µM
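Further: spheroids exposed to the agents for one week.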
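Wherever viability, T/C is given: 100% = DMSO vehicle control wells.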

CC(=O)O[C@H]1C(=O)[C@@]2(C)[C@H]([C@H](OC(=O)c3ccccc3)[C@]3(O)C[C@H](OC(=O)[C@H](O)[C@@H](NC(=O)c4ccccc4)c4ccccc4)C(C)=C1C3(C)C)[C@]1(OC(C)=O)CO[C@@H]1C[C@@H]2O + Cc1cccc(N(C)C(=O)C2C(O)CCN2c2nc(C)cc(C(F)(F)F)c2C#N)c1
IC50 (second compound 0.0316 µM): > 3 µM
IC50 (second compound 0.1 µM): > 3 µM
IC50 (second compound 0.316 µM): > 3 µM
IC50 (second compound 1 µM): > 3 µM
IC50 (second compound 3.16 µM): > 3 µM
IC50 (second compound 10 µM): > 3 µM
viability, T/C (second compound 0.0316 µM, first compound 0.00949 µM): 100%
viability, T/C (second compound 0.0316 µM, first compound 0.03 µM): 102%
viability, T/C (second compound 0.0316 µM, first compound 0.0949 µM): 101%
viability, T/C (second compound 0.0316 µM, first compound 0.3 µM): 103%
viability, T/C (second compound 0.0316 µM, first compound 0.949 µM): 98.5%
viability, T/C (second compound 0.0316 µM, first compound 3 µM): 76.6%
viability, T/C (second compound 0.1 µM, first compound 0.00949 µM): 105%
viability, T/C (second compound 0.1 µM, first compound 0.03 µM): 107%
viability, T/C (second compound 0.1 µM, first compound 0.0949 µM): 99.4%
viability, T/C (second compound 0.1 µM, first compound 0.3 µM): 99.8%
viability, T/C (second compound 0.1 µM, first compound 0.949 µM): 98.9%
viability, T/C (second compound 0.1 µM, first compound 3 µM): 66.9%
viability, T/C (second compound 0.316 µM, first compound 0.00949 µM): 104%
viability, T/C (second compound 0.316 µM, first compound 0.03 µM): 103%
viability, T/C (second compound 0.316 µM, first compound 0.0949 µM): 99.9%
viability, T/C (second compound 0.316 µM, first compound 0.3 µM): 103%
viability, T/C (second compound 0.316 µM, first compound 0.949 µM): 95.5%
viability, T/C (second compound 0.316 µM, first compound 3 µM): 73.3%
viability, T/C (second compound 1 µM, first compound 0.00949 µM): 104%
viability, T/C (second compound 1 µM, first compound 0.03 µM): 98.2%
viability, T/C (second compound 1 µM, first compound 0.0949 µM): 99%
viability, T/C (second compound 1 µM, first compound 0.3 µM): 101%
viability, T/C (second compound 1 µM, first compound 0.949 µM): 91.8%
viability, T/C (second compound 1 µM, first compound 3 µM): 64.8%
viability, T/C (second compound 3.16 µM, first compound 0.00949 µM): 99.8%
viability, T/C (second compound 3.16 µM, first compound 0.03 µM): 105%
viability, T/C (second compound 3.16 µM, first compound 0.0949 µM): 100%
viability, T/C (second compound 3.16 µM, first compound 0.3 µM): 95%
viability, T/C (second compound 3.16 µM, first compound 0.949 µM): 70.5%
viability, T/C (second compound 3.16 µM, first compound 3 µM): 63.5%
viability, T/C (second compound 10 µM, first compound 0.00949 µM): 97.3%
viability, T/C (second compound 10 µM, first compound 0.03 µM): 99.3%
viability, T/C (second compound 10 µM, first compound 0.0949 µM): 75.5%
viability, T/C (second compound 10 µM, first compound 0.3 µM): 66.7%
viability, T/C (second compound 10 µM, first compound 0.949 µM): 63.3%
viability, T/C (second compound 10 µM, first compound 3 µM): 48.7%

COc1cc(C2c3cc4c(cc3C(OC3OC5COC(C)OC5C(O)C3O)C3COC(=O)C23)OCO4)cc(OC)c1O (stereo unspecified) + Cc1cccc(N(C)C(=O)C2C(O)CCN2c2nc(C)cc(C(F)(F)F)c2C#N)c1
IC50 (second compound 0.0316 µM): 8.07 µM
IC50 (second compound 0.1 µM): 6.05 µM
IC50 (second compound 0.316 µM): 8.24 µM
IC50 (second compound 1 µM): 8.49 µM
IC50 (second compound 3.16 µM): 6.33 µM
IC50 (second compound 10 µM): 1.72 µM
viability, T/C [1]: 101%
viability, T/C [2]: 90%
viability, T/C [3]: 91.2%
viability, T/C [4]: 93.2%
viability, T/C [5]: 89.8%
viability, T/C [6]: 40.9%
viability, T/C [7]: 101%
viability, T/C [8]: 98.9%
viability, T/C [9]: 95.9%
viability, T/C [10]: 96.3%
viability, T/C [11]: 68.9%
viability, T/C [12]: 35.3%
viability, T/C [13]: 112%
viability, T/C [14]: 102%
viability, T/C [15]: 99.5%
viability, T/C [16]: 93.4%
viability, T/C [17]: 80.8%
viability, T/C [18]: 43.3%
viability, T/C [19]: 92.2%
viability, T/C [20]: 98.8%
viability, T/C [21]: 96.3%
viability, T/C [22]: 88.5%
viability, T/C [23]: 76.5%
viability, T/C [24]: 45.6%
viability, T/C [25]: 102%
viability, T/C [26]: 95.8%
viability, T/C [27]: 89.9%
viability, T/C [28]: 86%
viability, T/C [29]: 74.9%
viability, T/C [30]: 34.8%
viability, T/C [31]: 100%
viability, T/C [32]: 79.9%
viability, T/C [33]: 92.1%
viability, T/C [34]: 65.6%
viability, T/C [35]: 32.1%
viability, T/C [36]: 21.6%

O=c1[nH]cc(F)c(=O)[nH]1 + Cc1cccc(N(C)C(=O)C2C(O)CCN2c2nc(C)cc(C(F)(F)F)c2C#N)c1
IC50 (second compound 0.0316 µM): 2.29 µM
IC50 (second compound 0.1 µM): 2.13 µM
IC50 (second compound 0.316 µM): 2.1 µM
IC50 (second compound 1 µM): 2.28 µM
IC50 (second compound 3.16 µM): 2.54 µM
IC50 (second compound 10 µM): 2.49 µM
viability, T/C [1]: 102%
viability, T/C [2]: 100%
viability, T/C [3]: 93%
viability, T/C [4]: 90%
viability, T/C [5]: 34.6%
viability, T/C [6]: 16.3%
viability, T/C [7]: 89.5%
viability, T/C [8]: 95.7%
viability, T/C [9]: 97.8%
viability, T/C [10]: 94.4%
viability, T/C [11]: 26.9%
viability, T/C [12]: 17.5%
viability, T/C [13]: 108%
viability, T/C [14]: 96.1%
viability, T/C [15]: 102%
viability, T/C [16]: 86.6%
viability, T/C [17]: 29.7%
viability, T/C [18]: 14.8%
viability, T/C [19]: 103%
viability, T/C [20]: 102%
viability, T/C [21]: 98.1%
viability, T/C [22]: 97.3%
viability, T/C [23]: 31.1%
viability, T/C [24]: 15.9%
viability, T/C [25]: 103%
viability, T/C [26]: 104%
viability, T/C [27]: 101%
viability, T/C [28]: 90.5%
viability, T/C [29]: 40.6%
viability, T/C [30]: 12.1%
viability, T/C [31]: 104%
viability, T/C [32]: 98.8%
viability, T/C [33]: 111%
viability, T/C [34]: 94.6%
viability, T/C [35]: 38.3%
viability, T/C [36]: 13.5%
